Source: patent publication US7767659B2, “Synthesis of naturally occurring ecteinascidins and related compounds” (Pharma Mar, S.A., priority 2002, dated 2010)
Where two headings read alike, the source gives them in different places.

Columns and labels:
HT-29 = test: cells; settings: Homo sapiens, HT-29, 48 h
How it was run: (§1)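 Colorimetric SRB read (490 nm) on triplicate wells after 48 h at 37 °C, 5% CO2. Dose range 10 to 10^−8 μg/ml; 5×10^3 cells/well pre-attached 18 h.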

A-549 = test: cells; settings: Homo sapiens, A549, 48 h
How it was run: as §1

[1] = Inhibition of cells growth by colorimetric assay (SRB); settings: human
How it was run: as §1

HMEC1 = test: as above; settings: for TGI H-MEC-1 / H-MEC-1 TGI: SRB, 48 hours exposure; for GI50: Homo sapiens, HMEC-1, 48 h
How it was run: as §1

LoVo = test: cells; settings: Homo sapiens, LoVo, 48 h; for GI50: read-out: LOVO GI50; for CC50: read-out: LOVO LC50; for IC (TGI): read-out: LOVO TGI
How it was run: as §1

LNCaP = test: Inhibition of cells growth by colorimetric assay (SRB); settings: Homo sapiens, LNCaP, 48 h; for GI50: read-out: LNCAP GI50; for CC50: read-out: LNCAP LC50; for IC (TGI): read-out: LNCAP TGI
How it was run: as §1

SK-BR-3 = test: as above; settings: Homo sapiens, SK-BR-3, 48 h; for GI50: read-out: SK-BR3 GI50; for CC50: read-out: SK-BR3 LC50; for IC (TGI): read-out: SK-BR3 TGI
How it was run: as §1

SK-MEL-28 = test: as above; settings: Homo sapiens, SK-MEL-28, 48 h; for GI50: read-out: MEL-28 GI50; for CC50: read-out: MEL-28 LC50; for IC (TGI): read-out: MEL-28 TGI
How it was run: as §1

PANC-1 = test: as above; settings: Homo sapiens, PANC-1, 48 h; for GI50: read-out: PANC-1 GI50; for CC50: read-out: PANC-1 LC50; for IC (TGI): read-out: PANC-1 TGI
How it was run: as §1

IGROV-ET = test: as above; settings: Homo sapiens, 48 h; for GI50: read-out: IGROV-ET GI50; for CC50: read-out: IGROV-ET LC50; for IC (TGI): read-out: IGROV-ET TGI
How it was run: as §1

DU-145 = test: as above; settings: Homo sapiens, DU-145, 48 h; for GI50: read-out: DU145 GI50; for CC50: read-out: DU145 LC50; for IC (TGI): read-out: DU145 TGI
How it was run: as §1

IGROV-1 = test: as above; settings: Homo sapiens, IGROV-1, 48 h; for GI50: read-out: IGROV GI50; for CC50: read-out: IGROV LC50; for IC (TGI): read-out: IGROV TGI
How it was run: as §1

K-562 = test: as above; settings: Homo sapiens, K562, 48 h; for GI50: read-out: K562 GI50; for CC50: read-out: K562 LC50; for IC (TGI): read-out: K562 TGI
How it was run: as §1

LoVo-Dox = test: as above; settings: Homo sapiens, 48 h; for GI50: read-out: LOVO-DOX GI50; for IC (TGI): read-out: LOVO-DOX TGI
How it was run: as §1

SK-OV-3 = test: as above; settings: for GI50: read-out: SK-OV3 GI50; for SK-OV3 TGI: SRB, 48 hours exposure
How it was run: as §1

SMILES: C=CCN1[C@@H]2c3c(cc(C)c(OC)c3OCOCCOC)C[C@H]1[C@H](C#N)N1C2CC2(O)C(=O)C(C)=C3OCOC3=C2[C@@H]1COC(=O)[C@H](CSCC1c2ccccc2-c2ccccc21)NC(=O)OC(C)(C)C (stereo partly drawn) [compound 10]
- GI50 (HT-29; read-out: GI50 HT29): 1010 µM
- CC50 (HT-29; read-out: LC50 HT29): 1010 µM
- IC (TGI) (HT-29; read-out: TGI HT29): 1010 µM
- GI50 (A-549; read-out: GI50 A549): 1010 µM
- CC50 (A-549; read-out: LC50 A549): 1010 µM
- IC (TGI) (A-549; read-out: TGI A549): 1010 µM
- CC50 at 48 h [1]: 7.63 µM
- TGI H-MEC-1 (HMEC1): 4.06E−06 Molar
- GI50 (HMEC1; read-out: GI50 H-MEC-1): 2.15 µM

SMILES: COc1cc2c(cc1O)CCN[C@]21CS[C@@H]2c3c(OC(C)=O)c(C)c4c(c3[C@H](COC1=O)N1C[C@@H]3Cc5cc(C)c(OC)c(O)c5C(C21)N3C)OCO4 (stereo partly drawn) [Et-745]
- GI50 (HT-29; read-out: HT29 GI50): 0.522 µM
- CC50 (HT-29; read-out: HT29 LC50): 13.4 µM
- IC (TGI) (HT-29; read-out: HT29 TGI): 2.65 µM
- GI50 (LoVo): 5.55 µM
- CC50 (LoVo): 13.4 µM
- IC (TGI) (LoVo): 13.4 µM
- GI50 (A-549; read-out: A549 GI50): 0.743 µM
- CC50 (A-549; read-out: A549 LC50): 13.4 µM
- IC (TGI) (A-549; read-out: A549 TGI): 4.77 µM
- CC50 at 48 h [1]: 13.4 µM
- GI50 (LNCaP): 0.652 µM
- CC50 (LNCaP): 9.81 µM
- IC (TGI) (LNCaP): 2.39 µM
- GI50 (SK-BR-3): 0.629 µM
- CC50 (SK-BR-3): 13.4 µM
- IC (TGI) (SK-BR-3): 3.15 µM
- GI50 (SK-MEL-28): 0.602 µM
- CC50 (SK-MEL-28): 8.62 µM
- IC (TGI) (SK-MEL-28): 2.21 µM
- GI50 (PANC-1): 1.32 µM
- CC50 (PANC-1): 13.4 µM
- IC (TGI) (PANC-1): 9.22 µM
- H-MEC-1 TGI (HMEC1): 3.67E−06 Molar
- GI50 (HMEC1; read-out: H-MEC-1 GI50): 0.634 µM
- GI50 (IGROV-ET): 3.7 µM
- CC50 (IGROV-ET): 13.4 µM
- IC (TGI) (IGROV-ET): 8.45 µM
- GI50 (DU-145): 0.488 µM
- CC50 (DU-145): 13.4 µM
- IC (TGI) (DU-145): 2.67 µM
- GI50 (IGROV-1): 0.774 µM
- CC50 (IGROV-1): 13.4 µM
- IC (TGI) (IGROV-1): 3.26 µM
- GI50 (K-562): 0.884 µM
- CC50 (K-562): 13.4 µM
- IC (TGI) (K-562): 3.9 µM
- GI50 (LoVo-Dox): 6.25 µM
- CC50 (LoVo-Dox; read-out: LOVO-DOX LC50): 13.4 µM
- IC (TGI) (LoVo-Dox): 13.4 µM
- GI50 (SK-OV-3; Homo sapiens, SK-OV-3, 48 h): 1.32 µM
- CC50 (SK-OV-3; Homo sapiens, SK-OV-3, 48 h, read-out: SK-OV3 LC50): 13.4 µM
- SK-OV3 TGI (SK-OV-3): 5.48E−06 Molar

SMILES: C=CCN1[C@@H]2c3c(cc(C)c(OC)c3O)C[C@H]1[C@H](C#N)N1C2[C@@H]2SCC(=O)C(=O)OC[C@H]1c1c3c(c(C)c(OC(C)=O)c12)OCO3 (stereo partly drawn) [compound 13]
- GI50 (HT-29; read-out: GI50 HT29): 6.02 µM
- CC50 (HT-29; read-out: LC50 HT29): 15.4 µM
- IC (TGI) (HT-29; read-out: TGI HT29): 15.4 µM
- GI50 (A-549; read-out: GI50 A549): 3.94 µM
- CC50 (A-549; read-out: LC50 A549): 13.7 µM
- IC (TGI) (A-549; read-out: TGI A549): 7.36 µM
- CC50 at 48 h [1]: 15.4 µM
- TGI H-MEC-1 (HMEC1): 1.54E−05 Molar
- GI50 (HMEC1; read-out: GI50 H-MEC-1): 4.74 µM

SMILES: COc1cc2c(cc1O)CCN[C@]21CS[C@@H]2c3c(OC(C)=O)c(C)c4c(c3[C@H](COC1=O)N1[C@@H]2[C@H]2c3c(cc(C)c(OC)c3O)C[C@@H]([C@@H]1O)N2C)OCO4 [Et-743, ecteinascidin 743, reference compound]
- GI50 (HT-29; read-out: HT29 GI50): 0.00341 µM
- CC50 (HT-29; read-out: HT29 LC50): 13.1 µM
- IC (TGI) (HT-29; read-out: HT29 TGI): 0.0111 µM
- GI50 (LoVo): 0.00156 µM
- CC50 (LoVo): 0.0114 µM
- IC (TGI) (LoVo): 0.00423 µM
- GI50 (A-549; read-out: A549 GI50): 0.00252 µM
- CC50 (A-549; read-out: A549 LC50): 0.0121 µM
- IC (TGI) (A-549; read-out: A549 TGI): 0.00551 µM
- GI50 (LNCaP): 0.00023 µM
- CC50 (LNCaP): 0.00122 µM
- IC (TGI) (LNCaP): 0.000529 µM
- GI50 (SK-BR-3): 0.000479 µM
- CC50 (SK-BR-3): 0.00857 µM
- IC (TGI) (SK-BR-3): 0.00172 µM
- GI50 (SK-MEL-28): 0.000742 µM
- CC50 (SK-MEL-28): 0.0112 µM
- IC (TGI) (SK-MEL-28): 0.00306 µM
- GI50 (PANC-1): 0.00159 µM
- CC50 (PANC-1): 0.0399 µM
- IC (TGI) (PANC-1): 0.00634 µM
- H-MEC-1 TGI (HMEC1): 6.88E−08 Molar
- GI50 (HMEC1; read-out: H-MEC-1 GI50): 0.00903 µM
- GI50 (IGROV-ET): 0.00429 µM
- CC50 (IGROV-ET): 0.0186 µM
- IC (TGI) (IGROV-ET): 0.00786 µM
- GI50 (DU-145): 0.000618 µM
- CC50 (DU-145): 4.33 µM
- IC (TGI) (DU-145): 0.00129 µM
- GI50 (IGROV-1): 0.000579 µM
- CC50 (IGROV-1): 0.0103 µM
- IC (TGI) (IGROV-1): 0.0026 µM
- GI50 (K-562): 0.000347 µM
- CC50 (K-562): 0.00106 µM
- IC (TGI) (K-562): 0.000605 µM
- GI50 (LoVo-Dox): 0.0295 µM
- IC (TGI) (LoVo-Dox): 0.11 µM
- GI50 (SK-OV-3; Homo sapiens, SK-OV-3, 48 h): 0.00131 µM
- SK-OV3 TGI (SK-OV-3): 1.30E−08 Molar

SMILES: C=CCN1[C@@H]2c3c(cc(C)c(OC)c3O)C[C@H]1[C@H](C#N)N1C2[C@@H]2SC[C@]3(NCCc4cc(O)c(OC)cc43)C(=O)OC[C@H]1c1c3c(c(C)c(OC(C)=O)c12)OCO3 (stereo partly drawn) [compound 14]
- GI50 (HT-29; read-out: GI50 HT29): 1.77 µM
- CC50 (HT-29; read-out: LC50 HT29): 12.5 µM
- IC (TGI) (HT-29; read-out: TGI HT29): 6.39 µM
- GI50 (A-549; read-out: GI50 A549): 2.23 µM
- CC50 (A-549; read-out: LC50 A549): 11.7 µM
- IC (TGI) (A-549; read-out: TGI A549): 5.11 µM
- CC50 at 48 h [1]: 12.5 µM
- TGI H-MEC-1 (HMEC1): 1.25E−05 Molar
- GI50 (HMEC1; read-out: GI50 H-MEC-1): 3 µM

SMILES: COc1cc2c(cc1O)CCN[C@]21CS[C@@H]2c3c(OC(C)=O)c(C)c4c(c3[C@H](COC1=O)N1C2C2N[C@@H](Cc3cc(C)c(OC)c(O)c32)[C@@H]1C#N)OCO4 (stereo partly drawn) [compound 15]
- GI50 (HT-29; read-out: GI50 HT29): 0.000484 µM
- CC50 (HT-29; read-out: LC50 HT29): 3.13 µM
- IC (TGI) (HT-29; read-out: TGI HT29): 0.00535 µM
- GI50 (A-549; read-out: GI50 A549): 0.002 µM
- CC50 (A-549; read-out: LC50 A549): 0.176 µM
- IC (TGI) (A-549; read-out: TGI A549): 0.00735 µM
- CC50 at 48 h [1]: 4.44 µM
- TGI H-MEC-1 (HMEC1): 1.32E−08 Molar
- GI50 (HMEC1; read-out: GI50 H-MEC-1): 0.000556 µM

SMILES: COc1c(C)cc2c(c1O)[C@@H]1C3[C@@H]4SCC(=O)C(=O)NC[C@@H](c5c6c(c(C)c(OC(C)=O)c54)OCO6)N3[C@@H](C#N)[C@H](C2)N1C (stereo partly drawn) [compound 75]
- GI50 (HT-29; read-out: HT29 GI50): 0.33 µM
- CC50 (HT-29; read-out: HT29 LC50): 16.1 µM
- IC (TGI) (HT-29; read-out: HT29 TGI): 0.933 µM
- GI50 (A-549; read-out: A549 GI50): 0.889 µM
- CC50 (A-549; read-out: A549 LC50): 12.7 µM
- IC (TGI) (A-549; read-out: A549 TGI): 4.01 µM
- CC50 at 48 h [1]: 16.1 µM
- H-MEC-1 TGI (HMEC1): 1.64E−06 Molar
- GI50 (HMEC1; read-out: H-MEC-1 GI50): 0.279 µM
